# In US6444871B1, “Tetracycline repressor regulated mammalian cell transcription and viral replication switch” (Brigham and Women's Hospital, priority 1997, dated 2002):
# Test system: tet operator-bearing hCMV major immediate-early enhancer-promoter
# Assay: hEGF expression in porcine partial thickness wounds after particle-mediated gene transfer
# Type: in vivo, pig
# Details: 500 mg tetracycline intravenous; day 2 to day 3 post-gene transfer
# Description: FIG. 5. In vivo regulation of the hCMV major immediate-early enhancer-promoter by the tet repressor. A total of 18 partial thickness wounds ([…]) were created on porcine dorsal skin. Nine wounds received 0.2 μg of pCMVtetOEGF and 0.8 μg of pcDNA3 vector DNA and the others received 0.2 μg of pCMVtetOEGF and 0.8 μg of pcDNA3-tetR by particle-mediated gene transfer. After particle bombardment, each transfected wound was enclosed in a sealed vinyl adhesive chamber containing 1.2 ml of isotonic saline in the presence of 100 units/ml penicillin and 100 μg/ml streptomycin. Wound fluid was collected from the chambers at 22, 46 and 70 hours after gene transfer and stored at −70° C. Following collection of wound fluid at each indicated time point, a new chamber was applied. Each pig was given 500 mg of tetracycline by intravenous injection at 46 hours after gene transfer. hEGF expression in wound fluid was determined by ELISA. The vertical line associated with each bar represents standard error. […]
# Preparation of cartridges with coated DNA-gold beads for Accell (Agracetus/Geniva, Inc.) particle-mediated gene transfer and the utilization of the Accell helium gene gun were according to the protocol provided by Geniva, Inc. (8520 University Green, Middleton, Wis. 53562). […] Levels of EGF in wound fluid was determined by ELISA with anti-HEGF specific antibody. […]
structure (smiles),measurement,value
CN(C)[C@@H]1C(O)=C(C(N)=O)C(=O)[C@@]2(O)C(O)=C3C(=O)c4c(O)cccc4[C@@](C)(O)[C@H]3C[C@@H]12 [tetracycline],increase of human EGF expression in wounds receiving pCMVtetOEGF and pcDNA3-tetR,4 fold
